Key:
[1] = Cytotoxicity against mouse LM3 cells; format: functional, cell-based
PANC-1 = test: Cytotoxicity against human PANC1 cells; format: functional, cell-based

SMILES	IC50 [1] [µM]	IC50 (PANC-1) [µM]
C=C(C)[C@@H]1CC[C@]2(C)C/C=C(\C)CC/C=C(\C)C(=O)C[C@@H]12	2.5	39.8
C=C(C)[C@@H]1[C@@H](OC(C)=O)C[C@]2(C)[C@H](OC(C)=O)/C=C(\C)CC/C=C(\C)C(=O)C[C@@H]12	17.8	398

Reference: ChEMBL document CHEMBL1268857, “Dolabellane Diterpenoids from the South Atlantic Gorgonian Convexella magelhaenica” (J Nat Prod, 2010)
